In PubChem BioAssay (NCI):
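Growth conditions: 96-well plates. Treatment: test compound, 48 hours, 5 concentrations. Analysis: linear interpolation between bracketing concentrations; unreached endpoints set to highest concentration. TGI is the concentration that stops growth completely.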

What was measured:
Assay in all cases: DTP human tumour cell line panel, 48 h
HOP-92 NSCLC = test system: HOP-92 NSCLC
UACC-257 melanoma = test system: UACC-257 melanoma
SK-OV-3 ovarian = test system: SK-OV-3 ovarian
SF-539 CNS = test system: SF-539 CNS
HCT-116 colon = test system: HCT-116 colon
UACC-62 melanoma = test system: UACC-62 melanoma
RXF-631 renal = test system: RXF-631 renal
MOLT-4 leukemia = test system: MOLT-4 leukemia
RPMI-8226 leukemia = test system: RPMI-8226 leukemia
DMS 273 small cell lung = test system: DMS 273 small cell lung
M19-MEL melanoma = test system: M19-MEL melanoma
SF-268 CNS = test system: SF-268 CNS
SNB-19 CNS = test system: SNB-19 CNS
A549 NSCLC = test system: A549 NSCLC
ACHN renal = test system: ACHN renal
SW-620 colon = test system: SW-620 colon
RXF 393 renal = test system: RXF 393 renal
MALME-3M melanoma = test system: MALME-3M melanoma
OVCAR-8 ovarian = test system: OVCAR-8 ovarian
XF 498 CNS = test system: XF 498 CNS
SK-MEL-28 melanoma = test system: SK-MEL-28 melanoma
HOP-18 NSCLC = test system: HOP-18 NSCLC
OVCAR-3 ovarian = test system: OVCAR-3 ovarian
CCRF-CEM leukemia = test system: CCRF-CEM leukemia
IGROV1 ovarian = test system: IGROV1 ovarian
NCI-H522 lung = test system: NCI-H522 lung
HT29 colon = test system: HT29 colon
KM20L2 colon = test system: KM20L2 colon
DLD-1 colon = test system: DLD-1 colon
HOP-62 NSCLC = test system: HOP-62 NSCLC
A498 renal = test system: A498 renal
SF-295 CNS = test system: SF-295 CNS
HL-60(TB) leukemia = test system: HL-60(TB) leukemia
LXFL 529 NSCLC = test system: LXFL 529 NSCLC
K-562 leukemia = test system: K-562 leukemia
OVCAR-4 ovarian = test system: OVCAR-4 ovarian
OVCAR-5 ovarian = test system: OVCAR-5 ovarian
HCC-2998 colon = test system: HCC-2998 colon
COLO 205 colon = test system: COLO 205 colon
SK-MEL-2 melanoma = test system: SK-MEL-2 melanoma
UO-31 renal = test system: UO-31 renal
M14 melanoma = test system: M14 melanoma
NCI-H23 lung = test system: NCI-H23 lung
CAKI-1 renal = test system: CAKI-1 renal
DMS 114 small cell lung = test system: DMS 114 small cell lung
EKVX NSCLC = test system: EKVX NSCLC
SNB-78 CNS = test system: SNB-78 CNS
SN12C renal = test system: SN12C renal
SK-MEL-5 melanoma = test system: SK-MEL-5 melanoma
NCI-H226 lung = test system: NCI-H226 lung
KM12 colon = test system: KM12 colon
U251 CNS = test system: U251 CNS
786-0 renal = test system: 786-0 renal
SNB-75 CNS = test system: SNB-75 CNS
HCT-15 colon = test system: HCT-15 colon
TK-10 renal = test system: TK-10 renal
LOX IMVI melanoma = test system: LOX IMVI melanoma
NCI-H460 lung = test system: NCI-H460 lung

Measured: TGI

CC(C)N(C(=O)C1(C)CC1)C(C)C
> 100 µM: HOP-92 NSCLC | UACC-257 melanoma | SK-OV-3 ovarian | SF-539 CNS | HCT-116 colon | UACC-62 melanoma | RXF-631 renal | MOLT-4 leukemia | RPMI-8226 leukemia | DMS 273 small cell lung | M19-MEL melanoma | SF-268 CNS | SNB-19 CNS | A549 NSCLC | ACHN renal | SW-620 colon | RXF 393 renal | MALME-3M melanoma | OVCAR-8 ovarian | XF 498 CNS | SK-MEL-28 melanoma | HOP-18 NSCLC | OVCAR-3 ovarian | CCRF-CEM leukemia | IGROV1 ovarian | NCI-H522 lung | HT29 colon | KM20L2 colon | DLD-1 colon | HOP-62 NSCLC | A498 renal | SF-295 CNS | HL-60(TB) leukemia | LXFL 529 NSCLC | K-562 leukemia | OVCAR-4 ovarian | OVCAR-5 ovarian | HCC-2998 colon | COLO 205 colon | SK-MEL-2 melanoma | UO-31 renal | M14 melanoma | NCI-H23 lung | CAKI-1 renal | DMS 114 small cell lung | EKVX NSCLC | SNB-78 CNS | SN12C renal | SK-MEL-5 melanoma | NCI-H226 lung | KM12 colon | U251 CNS | 786-0 renal | SNB-75 CNS | HCT-15 colon

COc1ccc2c(c1O)C(=O)C(CCC(=O)O)CC2 (centres undefined)
> 100 µM: HOP-92 NSCLC | UACC-257 melanoma | SK-OV-3 ovarian | SF-539 CNS | TK-10 renal | HCT-116 colon | UACC-62 melanoma | RXF-631 renal | MOLT-4 leukemia | RPMI-8226 leukemia | DMS 273 small cell lung | M19-MEL melanoma | LOX IMVI melanoma | SNB-19 CNS | A549 NSCLC | ACHN renal | SW-620 colon | RXF 393 renal | NCI-H460 lung | OVCAR-8 ovarian | XF 498 CNS | SK-MEL-28 melanoma | HOP-18 NSCLC | OVCAR-3 ovarian | CCRF-CEM leukemia | IGROV1 ovarian | HT29 colon | KM20L2 colon | DLD-1 colon | HOP-62 NSCLC | A498 renal | SF-295 CNS | HL-60(TB) leukemia | LXFL 529 NSCLC | OVCAR-4 ovarian | HCC-2998 colon | COLO 205 colon | M14 melanoma | NCI-H23 lung | CAKI-1 renal | DMS 114 small cell lung | EKVX NSCLC | SNB-78 CNS | SN12C renal | SK-MEL-5 melanoma | U251 CNS | 786-0 renal | SNB-75 CNS | HCT-15 colon
